According to patent publication US20200308540A1, “METHODS OF MAKING, EXPANDING, AND USING A HUMAN PROGENITOR T CELL” (REGENTS OF THE UNIVERSITY OF MINNESOTA, priority 2017, published 2020):

Experiments:
[1] = system: CD34^+ hematopoietic stem/progenitor cells (HSPCs); test: SR1 expansion culture of umbilical cord blood CD34+ HSPC (15 days); assay type: cell-based, human
Description: Frozen UCB units were thawed using standard methods (Rubinstein et al., Proc Natl Acad Sci USA. 1995; 92:10119-10122). The UCB unit was enriched for CD34^+-cells using the CliniMACS Cell Selection Device (Miltenyi Biotec, Gladbach, Germany) following manufacturer's instructions, and the resulting CD34-enriched cell population was placed in expansion media at a concentration of 5×10^3 cells per milliliter (cells/mL). The expansion culture media included SCF, FLT-3L, TPO, IL-6 (each at 50 ng/ml) and SR1 (750 nM). Cells were cultured in expansion culture media without the addition of antibiotics for 15 days; cytokines were replenished and cells were resuspended at 5×10^3 cells/mL at day 7.
HSC expansion media cultures (Boitano et al. Science. 2010; 329(5997):1345-1348) lasted 15 days prior to freezing.
It was previously reported that naïve-UCB can generate 4- to 5-fold Tprog expansion (Awong et al. Blood. 2009; 114(5):972-982). At least 2×10^5 CD34^+ HSPC are needed for HSCT; but a single UCB unit averages 2.5×10^3 CD34^+ HSPC (Delaney et al. Expert Rev Hematol. 2010; 3(3):273-283). This Example describes an investigation of whether adding SR1 (0.75 μM) to expand CD34^+ HSPC Wagner et al. Cell Stem Cell. 2016; 18(1):144-155) could improve in vitro pro-T generation. CD34^+ HSPC culture reproducibility (FIG. 11A) was characterized. […] 2012; 10(2):120-136).

[2] = system: progenitor T cells (CD7^+ cells); test: OP9-DL1 co-culture of SR1-/UM171-expanded cells to generate progenitor T cells; assay type: cell-based, human; settings: for CD34 expression during culture with OP9-DL1 cells: cells expanded with compound, then OP9-DL1 culture
Description: 1. SR1-expanded cells were suspended in 3 mL of OP9 media then seeded into a plate/flask containing irradiated OP9-DL1 cells at 80% confluency. The human cytokines FLT-3L, IL-7, and SCF were added from a 1,000×stock solution (to 1×final concentration). 2. Additional human cytokines FLT-3L, IL-7, and SCF were added from a 1,000×stock solution (to 1×final concentration) every other day during cell culture. 3. At day 5 and every 3 days to 4 days thereafter, media containing cells was removed, and cells and media were passed through a 70 μm sterile nylon mesh or a 40 μm cell strainer into a 50 mL conical tube. Passage through the mesh or strainer removes OP9-DL1 cells but not cells derived from UCBs. PBS (5 mL) was added, and the coculture was disaggregated by vigorous pipetting (using a 5 mL pipette) and passed through the same cell strainer. […] 4. The cells that passed through the cell strainer were centrifuged at 515-585×g for 5 minutes, the supernatant was removed, and the cells were suspended in 1 mL of OP9 media. At this stage, the cells were counted using a hemocytometer (FIG. 2), assayed by flow cytometry (FIG. 3), or co-culture was continued. For continued co-culture, the cells were transferred into a new 6-well plate already containing OP9-DL1 cells at 80% confluency in 2 mL of OP9 media, and human cytokines FLT-3L, IL-7, and SCF were added from a 1,000×stock solution (to 1×final concentration). 5. Cells were harvested as described in steps 3 and 4 at day 14 or day 21 and phenotype was assessed (see FIG. 2, FIG. 3, and FIG. 7) or the cells were injected into a mouse, as described in Example 5. OP9-DL1 were gamma-irradiated (100 Gy) and seeded onto tissue culture flasks. SR1-UCB and naïve-UCB were seeded 2:1 with OP9-DL1 to generate proT-cells after 13-14 days (Schmitt et al. Immunity. 2002; 17(6):749-756). To examine whether SR1-expanded HSPC could generate proT-cells in vitro, SR1-HSPC were co-cultured with OP9-DL1 (FIG. 11A). […] SR1-HSPC and naïve-HSPC co-cultures had similar % CD34^−CD7^+ cells, % CD7^+CD5^+ cells and % CD7^+CD1a^+ cells (FIG. 11C). […] From SR1-HSPC, an approximately 4-fold expansion of pro-Tcells was observed, similar to naïve-HSPC co-cultures (FIG. 11D). Combining SR1-expansion of HSPCs and use of OP9-DL1 co-cultures, a single starting HSPC yielded approximately 2×10^3 cells, a 200-fold greater expansion of SR1-proT cells over naïve proT-cells (FIG. 11E).

NSG mice = test: Engraftment of progenitor T cells in NSG mice (thymus, spleen); settings: mouse, in vivo
Description: ProT cells generated as described in Example 4 (after 21 days of co-culture) were injected into the liver of 2 day to 5 day old neonatal (NOD/SCID/γcnull (NSG)) mice (3 mice per group) at different cell concentrations/mouse (e.g., 2×10^5 cells, 5×10^5 cells, or 5×10^6 cells in 30 μL, volume). Optionally, 2×10^4 CD34-enriched HSCs, isolated from a UCB unit using the CliniMACS Cell Selection Device (Miltenyi Biotec, Gladbach, Germany) following manufacturer's instruction, were injected simultaneously.
Twelve weeks later, mice were sacrificed, and engraftment of the in vitro-derived ProT cells into immunodeficient mice was assessed by flow cytometry analysis using phenotypic characterization of cells within the thymus and spleen of the recipient mouse. Useful markers for analysis include CD45, CD3/TCR, CD8, CD4, CD5, CD7, and CD1a (antibodies were acquired from eBioscience, San Diego, Calif.).
As shown schematically in FIG. 8, SR1-expanded CD34^+ cells from a UCB unit were put into culture with OP9-DL1 cells for 14 days as described in Example 4. […] Four weeks later the mice were sacrificed and the cells' ability to engraft the thymus was assessed.
Tprogenitors were generated from naïve UCB by co-culture with OP9-DL1 cells for 14 days as described in Example 4. […] Four weeks later the mice were sacrificed and the cells' ability to engraft the thymus was assessed. […]

patients = settings: SR1-expanded cord blood; cited from earlier work
CD34+ stem cells = settings: median; Wagner et al. 2016; cited from earlier work

Row | SMILES | fold enhancement of total nuclear cells ([1]; SR1 0.75 μM, by day 15) | fold expansion of CD34^+CD90^+ cells ([1]; SR1 0.75 μM, by day 15) | fold expansion of long-term reconstituting CD34^+CD38^− cells ([1]; SR1 0.75 μM, by day 15) | fold expansion of CD34^+ hematopoietic stem/progenitor cells (HSPCs) ([1]; SR1-expanded umbilical cord blood) | cells yielded from a single starting HSPC ([2]; SR1-expansion of HSPCs combined with OP9-DL1 co-culture) | fold increase in ProT cells ([2]; SR1 expansion of human UCB, then co-culture with Notch ligand cell without SR1) [fold] | CD34 expression during culture with OP9-DL1 cells [2] | percentage of culture that is proT cell (CD7^+ cell) ([2]; flow cytometry after OP9-DL1 culture) | fold expansion of pro-T cells in OP9-DL1 co-culture ([2]; from SR1-HSPC, day 14) | fold greater expansion of SR1-proT cells over naïve proT-cells ([2]; normalized to initial CD34+ input cell number) [fold] | thymus engraftment of cells treated with the compound, after OP9-DL1 co-culture (NSG mice) | median time to neutrophil engraftment (patients) [days] | median time to platelet engraftment (patients) [days] | fold expansion of CD34+ stem cells (CD34+ stem cells) [fold]
1 | CC(C)n1cnc2c(NCCc3ccc(O)cc3)nc(-c3csc4ccccc34)nc21 [SR1, StemRegenin-1] | 252-746 fold | 170-415 fold | 157-558 fold | greater than 250 fold | approximately 2×10^3 cells | 2000 | lose CD34 expression | greater than 90% | approximately 4 fold | 200 | able to engraft the thymus | 15 | 49 | 330
2 | Cn1nnc(-c2ccc3c(c2)[nH]c2nc(Cc4ccccc4)nc(NC4CCC(N)CC4)c23)n1 (stereo not shown) [UM171] |  |  |  |  |  |  | lose CD34 expression |  |  |  | able to engraft the thymus |  |  | 
